{
  "source": "patent US11090395B2",
  "about": "“Composition for cross talk between estrogen receptors and cannabinoid receptors” (SeeCure Taiwan Co., Ltd., priority 2018, dated 2021)",
  "tested_on": "lymphoma cells (mantle cell lines and DLBCL cell lines)",
  "test": "In vitro anti-cancer cell viability assay in lymphoma cell lines",
  "format": "cell-based",
  "method": "Effect of Composition SC-05-L-1 and Composition SC-05-K-1 against lymphoma cells was assessed by using cell viability assays in representative mantle cell lines and diffuse large B-cell lymphoma (DLBCL) cell lines. The cells were treated with increasing concentration of Compound SC-05-L-1 and Compound SC-05-K-1. Representative DLBCL cell lines sensitive or less sensitive to Compound SC-05-L-1 and Compound SC-05-K-1 were compared.",
  "data": [
    {"smiles": "CCN(CC)CCOc1ccc(/C(=C(/CCCOCC(O)CN2CCCNCCNCCCNCC2)c2ccccc2)c2ccccc2)cc1.Cl", "note": "[SC-05-L-1, (Z)-1-(1,4,8,11-tetraazacyclotetradecan-1-yl)-3-((5-(4-(2-(diethylamino)ethoxy)phenyl)-4,5-diphenylpent-4-en-1-yl)oxy)propan-2-ol hydrochloride salt]", "values": [
      {"measurement": "anti-cancer effect against lymphoma cells", "setting": "increasing concentration (FIG. 7A, 7B)", "result": "dose-dependent manner against lymphoma cells"},
      {"measurement": "relative toxicity", "setting": "lymphoma cells, cyclam versus cyclen chelator (FIG. 8A, 8B)", "result": "less toxic than Compound SC-05-K-1"}
    ]}
  ]
}
